Experimental data reported in US6872850B2, “Small molecule inhibitors of secretion of proteins encoded by ARE-mRNAs” (Message Pharmaceuticals, priority 2001, dated 2005).

Legend:
TNFα = assay: ELISA of TNFα secreted into the media after LPS; assay type: cell-based
Method: The ability of candidate compounds to reduce the amount of secreted TNFα was also directly tested using an ELISA assay. […] A standard ELISA analysis was used to measure the amount of TNFα secreted into the media (see, for example, Ausubel et al., supra). The effect of a candidate compound on TNFα secretion in this assay is reported in the following tables as a percentage of the amount of TNFα secreted by a control cell that was administered a DMSO vehicle control only.

3′ UTR of the TNFα gene = assay: cell-based luciferase reporter assay, 5B cell line (luciferase gene with entire 3′ UTR of the TNFα gene); design: species or system mouse; settings: for Luciferase 5B (% of DMSO control): 1 h, then LPS, 5B cell line
Method: The candidate compounds were tested in a high-throughput, cell-based luciferase reporter assay. For this assay, a commercially available mouse macrophage Raw 264.7 cell line was stably transfected with a construct containing the CMV promoter operably linked to the luciferase gene which was modified using standard molecular biology techniques to contain the entire 3′ UTR of the TNFα gene. This 3′ UTR is important for the stability and translation of TNFα in cells. To control for effects of candidate compounds that are not specific for TNFα, a control cell line, called “3B,” was generated by stably transfecting the 264.7 cell line with a commercially available construct containing the luciferase gene (without the addition of the heterologous 3′ UTR of the TNFα gene) under the regulation of the CMV promoter.
[…] Then, lipopolysaccharide (LPS) was added to stimulate TNFα secretion. Luciferase activity was measured by determining the luminescence intensity due to the reaction of lucifern, ATP, Mg^2+, and molecular O2 (see, for example, Ausubel et al., supra). The luciferase activity in a cell incubated with a candidate compound was reported as a percentage of the luciferase activity for the corresponding cell incubated with DMSO vehicle only.
After correction for any effect caused by the administration of the DMSO only vehicle control, the effect of a candidate compound on luciferase activity in the 3B control cell line represents the global effect of the compound on any step required for expression or activity of luciferase protein, such as luciferase gene transcription, mRNA processing, mRNA stability, translation, protein stability, or enzymatic activity. […] In this case, the luciferase activity in the 5B cell line treated with the DMSO vehicle control is similar to the luciferase activity in the control 3B cell line treated with the candidate compound. Thus, the response of the 5B cell line (as a percent of the DMSO control) and the ratio of the luciferase activity in the 5B cell line (as a percent of the DMSO control) to the luciferase activity in the control 3B cell line (as a percent of the DMSO control) are similar. In desirable embodiments, the response of the 5B cell line and the 5B/3B ratio differ by less than 50, 40, 30, 20, 10, or 5%.

[1] = 10 μM compound, ratio of 5B to control 3B cell line

Compound	TNFα Secretion (% of DMSO control) (TNFα; 10 μM compound, 1 h, then LPS)	Luciferase 5B (% of DMSO control) (3′ UTR of the TNFα gene; 10 μM compound)	Luciferase 5B/3B (% of DMSO control 5B)/(% of DMSO control 3B) (3′ UTR of the TNFα gene; [1])	also measured
C/C(=N\N=C(N)N)c1cccc(C(=O)NCCNC(=O)[C@H](Cc2ccccc2)NC(=O)c2ccc(/C(=N\N=C(N)N)c3ccccc3)cc2)c1.O=C(O)C(F)(F)F.O=C(O)C(F)(F)F [MES 10092, (1-Z,4-E)-Bisguanylhydrazone of 1-[(S)-N-(4-benzoylbenzoyl)-2-amino-3-phenylpropanoyl]-4-(3-acetylbenzoyl)-1,4-diazabutane bis trifluoroacetate]	–	–	–	TNFα Secretion (% of DMSO control) (TNFα; 1 μM compound (Table 11)): 108 % of DM80 control; TNFα Secretion (% of DMSO control) (TNFα; 3 μM compound (Table 11)): 81 % of DM80 control; TNFα Secretion (% of DMSO control) (TNFα; 10 μM compound (Table 11)): 107 % of DM80 control; Luciferase 5B/3B (% of DMSO control 5B)/(% of DMSO control 3B) (3′ UTR of the TNFα gene; 1 μM compound (Table 11)): 100 (% of DMSO control 5B)/(% of D; Luciferase 5B/3B (% of DMSO control 5B)/(% of DMSO control 3B) (3′ UTR of the TNFα gene; 3 μM compound (Table 11)): 78 (% of DMSO control 5B)/(% of D; Luciferase 5B/3B (% of DMSO control 5B)/(% of DMSO control 3B) (3′ UTR of the TNFα gene; 10 μM compound (Table 11)): 69 (% of DMSO control 5B)/(% of D
CC(C)C[C@H](NC(=O)c1ccc(C(=NNC(=N)N)c2ccccc2)cc1)C(=O)N1CCN(C(=O)[C@H](Cc2ccccc2)NC(=O)c2ccc(C(=O)c3ccccc3)cc2)CC1.O=C(O)C(F)(F)F [MES 10168, (4-E)-Guanylhydrazone of 1-[(S)-N-(4-benzoylbenzoyl)-2-amino-3-phenylpropanoyl]-4-[(2S)-N-(4-benzoylbenzoyl)-2-amino-4-methylpentanoyl]-1,4-piperazine trifluoroacetate]	35 % of DMSO control	104 % of DMSO control	127 (% of DMSO control 5B)/(% of DMSO control 3B)	–
CC(=NNC(=N)N)c1cccc(C(=O)N[C@@H](CC(C)C)C(=O)N2CCN(C(=O)[C@H](Cc3ccccc3)NC(=O)c3ccc(C(=O)c4ccccc4)cc3)CC2)c1.O=C(O)C(F)(F)F [MES 10173, (4-E)-Guanylhydrazone of 1-[(S)-N-(4-benzoylbenzoyl)-2-amino-3-phenylpropanoyl]-4-[(2S)-N-(3-acetylbenzoyl)-2-amino-4-methylpentanoyl]-piperazine trifluoroaceteate]	42 % of DMSO control	26 % of DMSO control	–	–
O=C(N[C@@H](Cc1ccccc1)C(=O)N1CCN(C(=O)CCC(=O)N2CCN(c3ccccc3)CC2)CC1)c1ccc(C(=O)c2ccccc2)cc1 [MES 10229]	65 % of DMSO control	31 % of DMSO control	49 (% of DMSO control 5B)/(% of D	–
CC(C)C[C@H](NC(=O)c1ccc(C(=O)c2ccccc2)cc1)C(=O)N1CCN(C(=O)CCC(=O)N2CCN(c3ccccc3)CC2)CC1 [MES 10230]	77 % of DMSO control	41 % of DMSO control	52 (% of DMSO control 5B)/(% of D	–
C/C(=N\NC(=N)N)c1cccc(C(=O)N[C@@H](CC(C)C)C(=O)N2CCN(C(=O)[C@H](Cc3ccccc3)NCc3ccccc3)CC2)c1 [MES 10241]	100 % of DMSO control	68 % of DMSO control	90 (% of DMSO control 5B)/(% of D	–
C/C(=N\NC(=N)N)c1cccc(C(=O)N[C@@H](CC(C)C)C(=O)N2CCN(C(=O)[C@H](Cc3ccccc3)NCc3ccc(I)cc3)CC2)c1 [MES 10242]	67 % of DMSO control	53 % of DMSO control	50 (% of DMSO control 5B)/(% of D	–
C/C(=N\NC(=N)N)c1cccc(C(=O)N[C@@H](CC(C)C)C(=O)N2CCN(C(=O)[C@H](Cc3ccccc3)NCc3ccc([N+](=O)[O-])cc3)CC2)c1 [MES 10243]	73 % of DMSO control	81 % of DMSO control	79 (% of DMSO control 5B)/(% of D	–
C/C(=N\NC(=N)N)c1cccc(C(=O)N[C@@H](CC(C)C)C(=O)N2CCN(C(=O)[C@H](Cc3ccccc3)NCc3ccc(-c4ccccc4)cc3)CC2)c1 [MES 10244]	48 % of DMSO control	46 % of DMSO control	36 (% of DMSO control 5B)/(% of D	–
CC(C)CC(NC(=O)c1ccc(C(=NNC(=N)N)c2ccccc2)cc1)C(=O)N1CCN(C(=O)C(Cc2ccccc2)NC(=O)c2ccccc2)CC1 (stereo not shown) [MES 10247]	39 % of DMSO control	37 % of DMSO control	41 (% of DMSO control 5B)/(% of D	–
CC(C)CC(NC(=O)c1ccc(C(=NNC(=N)N)c2ccccc2)cc1)C(=O)N1CCN(C(=O)C(Cc2ccccc2)NC(=O)c2ccccc2)CC1 (stereo not shown) [MES 10248]	39 % of DMSO control	56 % of DMSO control	72 (% of DMSO control 5B)/(% of D	–
CC(C)C[C@H](NC(=O)c1ccccc1)C(=O)N1CCN(C(=O)[C@H](Cc2ccccc2)NC(=O)c2ccc(/C(=N/N=C(N)N)c3ccccc3)cc2)CC1.O=C(O)C(F)(F)F [MES 10249, (E)-Guanylhydrazone of 1-[(S)-N-(4-benzoylbenzoyl)-2-amino-3-phenylpropanoyl]-4-[(2S)-N-(benzoyl)-2-amino-4-methylpentanoyl]-1,4-piperazine trifluoroacetate]	40 % of DMSO control	58 % of DMSO control	68 (% of DMSO control 5B)/(% of D	–
CC(C)C[C@H](NC(=O)c1ccccc1)C(=O)N1CCN(C(=O)[C@H](Cc2ccccc2)NC(=O)c2ccc(/C(=N\N=C(N)N)c3ccccc3)cc2)CC1.O=C(O)C(F)(F)F [MES 10250, (Z)-Guanylhydrazone of 1-[(S)-N-(4-benzoylbenzoyl)-2-amino-3-phenylpropanoyl]-4-[(2S)-N-(benzoyl)-2-amino-4-methylpentanoyl]-1,4-piperazine trifluoroacetate]	40 % of DMSO control	37 % of DMSO control	49 (% of DMSO control 5B)/(% of D	–
C/C(=N\NC(=N)N)c1cccc(C(=O)N[C@@H](CC(C)C)C(=O)N2CCN(C(=O)[C@H](Cc3ccccc3)NC(=O)c3ccc(OCc4ccccc4)cc3)CC2)c1 [MES 10307]	45 % of DMSO control	38 % of DMSO control	40 (% of DMSO control 5B)/(% of D	–
(1-Z,4-E)-Bisguanylhydrazone of 1-[(S)-N-(4-benzoylbenzoyl)-2-amino-3-phenylpropanoyl]-4-[(2S)-N-(3-acetylbenzoyl)-2-amino-4-methylpentanoyl]-piperazine bis trifluoroacetate [MES 10172]	60 % of DMSO control	38 % of DMSO control	49 (% of DMSO control 5B)/(% of DMSO control 3B)	–
(E,E)-Bisguanylhydrazone of 1-[(S)-N-(4-benzoylbenzoyl)-2-amino-3-phenylpropanoyl]-4-[(2S)-N-(3-acetylbenzoyl)-2-amino-4-methylpentanoyl]-1,4-piperazine bis trifluoroacetate [MES 10171]	57 % of DMSO control	20 % of DMSO control	24 (% of DMSO control 5B)/(% of DMSO control 3B)	–
(E,E)-Bisguanylhydrazone of 1-[(S)-N-(4-benzoylbenzoyl)-2-amino-3-phenylpropanoyl]-4-[(2S)-N-(4-benzoylbenzoyl)-2-amino-4-methylpentanoyl]-1,4-piperazine bis trifluoroacetate [MES 10164]	45 % of DMSO control	29 % of DMSO control	31 (% of DMSO control 5B)/(% of DMSO control 3B)	effect on amount of secreted TNFα (direct TNFα secretion assay), in words (TNFα; after LPS stimulation): inhibited TNFα secretion; effect on luciferase activity in the 5B cell line (luciferase assay), in words (3′ UTR of the TNFα gene): inhibited TNFα secretion
